The test system of one assay is C. elegans. Nature of the assay: C. elegans lifespan assays. The assay is classed as in vivo. An excerpt:
FIG. 21, panels A-F: AIC106 prevents neuronal loss and proteotoxicity in strains expressing human neurotoxic proteins. Panel A) Dopaminergic neuronal loss in day-5 UA44 worms was quantified by scoring percentage of worms with intact 4-CEP neurons in AIC106 and DMSO-control treatment. [N=3 independent experiments (mean±SD). ***p<0.001, by one-way ANOVA with Tukey's multiple comparisons test]. Motor function in (panel B) day-7 NL5901 and (panel C) day-5 CL2006 worms were quantified by scoring number of thrashes for an individual worm over the period of 30 seconds (dots) in AIC106 and DMSO-control treatment. [N=3 independent experiments (mean±SD). **p<0.01, ***p<0.001 and ****p<0.0001, by one-way ANOVA with Tukey's multiple comparisons test]. Panel D) Motor function in temperature sensitive (enhanced paralysis at 25° C.) CL4176 worms was determined by scoring percent of worms paralyzed in AIC106 and DMSO-control treatment. [N=3 independent experiments (mean±SD). **p<0.01, by one-way ANOVA with Tukey's multiple comparisons test]. Panel E) Lifespan analysis of CL6049 worms exposed to AIC106 and DMSO-control. [N=2 independent experiments, Treatment (median survival in days, P value compared to DMSO-control): DMSO-control (12), AIC106 10 μM (15, p<0.01), 20 μM (15, p<0.0001) and 50 μM (17, p<0.0001). P-value calculated by Logrank test]. Panel F) Effect of AIC106 on polyQ40 aggregation was determined by scoring number of polyQ40-YFP fluorescent puncta in an individual AM141 worm treated with AIC106 and DMSO-control. [N=3 independent experiments (mean±SD). *p<0.05 and ***p<0.001, by one-way ANOVA with Tukey's multiple comparisons test].
FIG. 27, panels A-C: AIC106 induces mitophagy and increases lifespan. Panel A) Relative fold change in mRNA of key mitophagy genes including dct-1, pink-1 and pdr-1 was quantified by qRT-PCR after DMSO-control and AIC106 24 hours treatment in young adult N2 and hlh-30(tm1978) mutants. [N=3 independent experiments (mean±SD). **p<0.01 and ****p<0.0001, by two-way ANOVA with Sidak's multiple comparisons test]. Short exposure (1 week) of AIC106 increased survival of (panel B) wild type N2: DMSO-control (median-12 days), AIC106 50 μM (median-15 days, p<0.0001) and (panel C) mitophagy deficient pdr-1(tm598): mutant DMSO-control (median-15 days), AIC106 50 μM (median −17 days, p<0.001)]. [N=3 independent experiments, P value compared to respective DMSO-control and calculated by Logrank test).
FIG. 28, panels A-B: AIC106 prevents neuronal loss and proteotoxicity in strains expressing human neurotoxic proteins. Panel A) Motor function in day-7 NL5901 were quantified by scoring number of thrashes for an individual worm over the period of 30 seconds (dots) in AIC106 and DMSO-control treatment. [N=3 independent experiments (mean±SD). ***p<0.001 and ****p<0.0001, by one-way ANOVA with Tukey's multiple comparisons test]. Panel B) Lifespan analysis of CL6049 worms exposed to AIC106 and DMSO-control. [N=2 independent experiments, Treatment (median survival in days, P value compared to DMSO-control): DMSO-control RNAi (18), CL6049-AIC106 control RNAi (21, p<0.0001), CL6049-AIC106 hlh-30 RNAi (17, p<0.0001) and 50 μM (17, p<0.0001). P-value calculated by Logrank test].
Lifespan assays for CL6049 and pdr-1(tm598) strains was performed after treating day-1 adult worms with DMSO or AIC106. A synchronized 35-40 young day-1 adult worms were transferred to each 35 mm compound-treated plates supplemented with FuDR containing control DMSO or AIC106 and kept at 20° C. Worms were scored as alive, dead, or lost every alternate day. […] Worms that died from causes other than aging, such as sticking to the plate walls, internal hatching of eggs (bagging), or gonadal extrusion were censored as lost. Worms were transferred to fresh-drugged plates every 3-5 days. All lifespan experiments were performed at 20° C.

Assay [1] has as its system parkin mutant PD mouse model. Put plainly: Age-related parkin mutant PD mouse model, C1 in the feed. The assay is classed as in vivo. Particulars: oral in the feed. The source says: Relative TFEB expression as assessed by qPCR from mRNA extracted from the SNpc of parkin mutant versus WT littermates administered C1 in the feed versus normal chow; UA was included as a positive control.
Stereological DAergic SNpc counts and motor behavior as assessed by rearing frequency in parkin mutant versus WT littermates administered C1 in the feed versus normal chow.

On to `O=c1oc2c3c4c(cc2c2c1CCC2)CCCN4CCC3` [C1, 2,3,6,7,10,11-Hexahydro-1H,5H-cyclopenta(3,4)(1)benzopyrano(6,7,8-ij)quinolizin-12(9H)-one], for which the median survival worked out at 17 days in the assay with C. elegans (CL6049, 50 μM as listed in FIG. 28 panel B legend); 21 days with C. elegans (CL6049, control RNAi, DMSO-control RNAi 18); 17 days in the assay on C. elegans (CL6049, hlh-30 RNAi); 15 days in the assay on C. elegans (CL6049 worms, 10 μM, DMSO-control 12); 15 days in the assay on C. elegans (CL6049 worms, 20 μM, DMSO-control 12); 17 days in the assay on C. elegans (CL6049 worms, 50 μM, DMSO-control 12). In addition, in the assay with C. elegans (CL6049 worms, dose dependent), the “human TDP-43 toxicity (survival)” value was “protected against human TDP-43 toxicity”. For the same compound, the lifespan entry in the assay with C. elegans (short treatment (1 week post-development)) was “significant increase in lifespan of both wild type N2 and pdr-1 mutant”. The “motor deficits (rearing frequency)” value in assay [1] (6 month period (FIG. 16)) was “prevents both neuronal cell loss and motor deficits”. The “neuronal cell loss (DAergic SNpc counts)” value in assay [1] (6 month period (FIG. 16)) is “prevents both neuronal cell loss and motor deficits”. In assay [1] (6 month period from 14-16 mo. (FIG. 15)), the “TFEB expression in SNpc” value was “TFEB target engagement”.

The values above are taken from patent US12673039B2, “Methods of inducing autophagy using coumarin derivatives and related compounds” (Buck Institute for Research on Aging, priority 2019, dated 2026).
